Measured values reported in the NIST ThermoML archive (doi:10.1021/acs.jced.8b00132).
Where “and” joins values, the source holds several entries; their conditions need not be identical. Identical values can stand only once. Numbers after ± are expanded uncertainties.

Details: Gas

O=C(C(F)(F)C(F)(F)F)C(F)(C(F)(F)F)C(F)(F)F [dodecafluoro-2-methylpentan-3-one]
Details	thermal conductivity
499.7 K, 3616 kPa, transient hot wire	0.03337 ± 0.0021 W/m/K
499.7 K, 4324 kPa, transient hot wire	0.03528 ± 0.0022 W/m/K
499.7 K, 5590 kPa, transient hot wire	0.03721 ± 0.00089 W/m/K
499.7 K, 35697 kPa, transient hot wire	0.05683 ± 0.0014 W/m/K
499.7 K, 50253 kPa, transient hot wire	0.06228 ± 0.0016 W/m/K
499.7 K, 50292 kPa, transient hot wire	0.06274 ± 0.0016 W/m/K
499.71 K, 3616 kPa, transient hot wire	0.03339 ± 0.0021 W/m/K
499.71 K, 25604 kPa, transient hot wire	0.05236 ± 0.0013 W/m/K
499.72 K, 3288 kPa, transient hot wire	0.03208 ± 0.002 W/m/K
499.72 K, 4324 kPa, transient hot wire	0.03516 ± 0.0022 W/m/K
499.72 K, 18413 kPa, transient hot wire	0.04809 ± 0.0012 W/m/K
499.73 K, 643 kPa, hot wire	0.02734 ± 0.0013 W/m/K and 0.02744 ± 0.0013 W/m/K
499.73 K, 4855 kPa, transient hot wire	0.03606 ± 0.00086 W/m/K and 0.03623 ± 0.00086 W/m/K
499.73 K, 18416 kPa, transient hot wire	0.04833 ± 0.0012 W/m/K
499.73 K, 35665 kPa, transient hot wire	0.05687 ± 0.0014 W/m/K
499.74 K, 3288 kPa, transient hot wire	0.03222 ± 0.002 W/m/K
499.74 K, 3937 kPa, transient hot wire	0.03429 ± 0.0021 W/m/K
499.74 K, 50254 kPa, transient hot wire	0.06235 ± 0.0016 W/m/K
499.75 K, 418 kPa, hot wire	0.02717 ± 0.0013 W/m/K
499.75 K, 2128 kPa, transient hot wire	0.02829 ± 0.0017 W/m/K
499.75 K, 35673 kPa, transient hot wire	0.05679 ± 0.0014 W/m/K
499.75 K, 35689 kPa, transient hot wire	0.05686 ± 0.0014 W/m/K
499.75 K, 50278 kPa, transient hot wire	0.06281 ± 0.0016 W/m/K
499.76 K, 417 kPa, hot wire	0.02687 ± 0.0013 W/m/K
499.76 K, 1595 kPa, transient hot wire	0.02727 ± 0.0009 W/m/K
499.76 K, 5594 kPa, transient hot wire	0.03739 ± 0.00089 W/m/K
499.76 K, 25601 kPa, transient hot wire	0.05218 ± 0.0013 W/m/K
499.76 K, 25602 kPa, transient hot wire	0.05226 ± 0.0013 W/m/K
499.76 K, 50255 kPa, transient hot wire	0.06232 ± 0.0016 W/m/K
499.77 K, 1595 kPa, transient hot wire	0.0273 ± 0.0009 W/m/K
499.77 K, 4324 kPa, transient hot wire	0.03524 ± 0.0022 W/m/K
499.78 K, 5592 kPa, transient hot wire	0.03734 ± 0.00089 W/m/K
499.79 K, 60 kPa, hot wire	0.02624 ± 0.0012 W/m/K
499.79 K, 218 kPa, hot wire	0.02627 ± 0.0012 W/m/K
499.79 K, 2953 kPa, transient hot wire	0.03092 ± 0.0019 W/m/K
499.79 K, 3618 kPa, transient hot wire	0.03355 ± 0.0021 W/m/K
499.79 K, 4324 kPa, transient hot wire	0.03534 ± 0.0022 W/m/K
499.79 K, 35664 kPa, transient hot wire	0.05692 ± 0.0014 W/m/K
499.79 K, 50251 kPa, transient hot wire	0.06211 ± 0.0016 W/m/K
499.8 K, 60 kPa, hot wire	0.02618 ± 0.0012 W/m/K
499.8 K, 217 kPa, hot wire	0.02613 ± 0.0012 W/m/K
499.8 K, 869 kPa, transient hot wire	0.02693 ± 0.0016 W/m/K and 0.02695 ± 0.0017 W/m/K
499.8 K, 2952 kPa, transient hot wire	0.03103 ± 0.0019 W/m/K
499.8 K, 3936 kPa, transient hot wire	0.03437 ± 0.0021 W/m/K
499.8 K, 4855 kPa, transient hot wire	0.03629 ± 0.00086 W/m/K
499.81 K, 2569 kPa, transient hot wire	0.0294 ± 0.0018 W/m/K
499.81 K, 3287 kPa, transient hot wire	0.0325 ± 0.002 W/m/K and 0.03233 ± 0.002 W/m/K
499.81 K, 3936 kPa, transient hot wire	0.03445 ± 0.0021 W/m/K
499.81 K, 35680 kPa, transient hot wire	0.05678 ± 0.0014 W/m/K
499.81 K, 35689 kPa, transient hot wire	0.05675 ± 0.0014 W/m/K
499.81 K, 50253 kPa, transient hot wire	0.06239 ± 0.0016 W/m/K
499.82 K, 2568 kPa, transient hot wire	0.02959 ± 0.0018 W/m/K
499.82 K, 35681 kPa, transient hot wire	0.05686 ± 0.0014 W/m/K
499.83 K, 646 kPa, transient hot wire	0.02724 ± 0.0017 W/m/K
499.83 K, 647 kPa, transient hot wire	0.02739 ± 0.0017 W/m/K
499.83 K, 13400 kPa, transient hot wire	0.04508 ± 0.0011 W/m/K
499.84 K, 5595 kPa, transient hot wire	0.03734 ± 0.00089 W/m/K
499.84 K, 13403 kPa, transient hot wire	0.04494 ± 0.0011 W/m/K
499.84 K, 18418 kPa, transient hot wire	0.04825 ± 0.0012 W/m/K
499.85 K, 3618 kPa, transient hot wire	0.0337 ± 0.0021 W/m/K
499.85 K, 4324 kPa, transient hot wire	0.03554 ± 0.0022 W/m/K
499.85 K, 25604 kPa, transient hot wire	0.05216 ± 0.0013 W/m/K
499.85 K, 35654 kPa, transient hot wire	0.05672 ± 0.0014 W/m/K
499.86 K, 4325 kPa, transient hot wire	0.03565 ± 0.0022 W/m/K
499.87 K, 5595 kPa, transient hot wire	0.03732 ± 0.00089 W/m/K
499.87 K, 35670 kPa, transient hot wire	0.05702 ± 0.0014 W/m/K
499.88 K, 1594 kPa, transient hot wire	0.02746 ± 0.0009 W/m/K
499.88 K, 1595 kPa, transient hot wire	0.02725 ± 0.00089 W/m/K
499.88 K, 2128 kPa, transient hot wire	0.02824 ± 0.0017 W/m/K
499.88 K, 2952 kPa, transient hot wire	0.03099 ± 0.0019 W/m/K
499.88 K, 3619 kPa, transient hot wire	0.03371 ± 0.0021 W/m/K
499.88 K, 3936 kPa, transient hot wire	0.03462 ± 0.0021 W/m/K
499.89 K, 422 kPa, transient hot wire	0.02757 ± 0.0017 W/m/K
499.89 K, 2128 kPa, transient hot wire	0.02826 ± 0.0017 W/m/K
499.89 K, 2952 kPa, transient hot wire	0.03116 ± 0.0019 W/m/K
499.89 K, 3936 kPa, transient hot wire	0.03474 ± 0.0021 W/m/K
499.89 K, 35669 kPa, transient hot wire	0.05673 ± 0.0014 W/m/K
499.9 K, 421 kPa, transient hot wire	0.02748 ± 0.0017 W/m/K
499.91 K, 2567 kPa, transient hot wire	0.02946 ± 0.0018 W/m/K
499.91 K, 3287 kPa, transient hot wire	0.03278 ± 0.002 W/m/K
499.91 K, 10172 kPa, transient hot wire	0.0425 ± 0.001 W/m/K
499.91 K, 25600 kPa, transient hot wire	0.05221 ± 0.0013 W/m/K
499.92 K, 6555 kPa, transient hot wire	0.03863 ± 0.00092 W/m/K
499.92 K, 10173 kPa, transient hot wire	0.0424 ± 0.001 W/m/K
